Laboratory results reported in patent US20090143375A1, “Tricyclic Lactam Derivatives, Their Manufacture and Use as Pharmaceutical Agents” (F. HOFFMANN-LA ROCHE AG, priority 2005, published 2009).

How the values were obtained:
HCT 116 cells = assay: CellTiter-Glo assay in HCT 116 cells (antiproliferative activity); type: cell-based; details: 120 h, HCT 116 cells (human colon carcinoma), 5 days incubation
Experimental: The CellTiter-Glo™ Luminescent Cell Viability Assay (Promega) is a homogeneous method of determining the number of viable cells in culture based on quantitation of the ATP present, which signals the presence of metabolically active cells.
HCT 116 cells (human colon carcinoma, ATCC-No. CCl-247) were cultivated in RPMI 1640 medium with GlutaMAX™ I (Invitrogen, Cat-No. 61870-010), 2.5% Fetal Calf Serum (FCS, Sigma Cat-No. F4135 (FBS)); 100 Units/ml penicillin/100 μg/ml streptomycin (=Pen/Strep from Invitrogen Cat. No. 15140). For the assay the cells were seeded in 384 well plates, 1000 cells per well, in the same medium. The next day the test compounds were added in various concentrations ranging from 30 μM to 0.0015 μM (10 concentrations, 1:3 diluted). After 5 days the CellTiter-Glo™ assay was done according to the instructions of the manufacturer (CellTiter-Glo™ Luminescent Cell Viability Assay, from Promega). In brief: the cell-plate was equilibrated to room temperature for approximately 30 minutes and than the CellTiter-Glo™ reagent was added. The contents were carefully mixed for 15 minutes to induce cell lysis. After 45 minutes the luminescent signal was measured in Victor 2, (scanning multiwell spectrophotometer, Wallac).
1st. day: • Medium: RPMI 1640 with GlutaMAX™ I (Invitrogen, Cat-Nr. 61870), 5% FCS (Sigma Cat.-No. F4135), Pen/Strep (Invitrogen, Cat No. 15140). • HCT116 (ATCC-No. CCl-247): 1000 cells in 60 μl per well of 384 well plate (Greiner 781098, μClear-plate white) • After seeding incubate plates 24 h at 37° C., 5% CO2 2nd. Day: Induction (Treatment with Compounds, 10 Concentrations):
In order to achieve a final concentration of 30 μM as highest concentration 3.5 μl of 10 mM compound stock solution were added directly to 163 μl media. Then step e) of the dilution procedure described below, was followed.
In order to achieve the second highest to the lowest concentrations, a serial dilution with dilution steps of 1:3 was followed according to the procedure (a-e) as described here below: • a) for the second highest concentration add 10 μl of 10 mM stock solution of compound to 20 μl dimethylsulfoxide (DMSO) • b) dilute 8×1:3 (always 10 μl to 20 μl DMSO) in this DMSO dilution row (results in 9 wells with concentrations from 3333.3 μM to 0.51 μM) • c) dilute each concentration 1:47.6 (3.5 μl compound dilution to 163 μl media) • e) add 10 μl of every concentration to 60 μl media in the cell plate resulting in final concentration of DMSO: 0.3% in every well and resulting in 10 final concentration of compounds ranging from 30 μM to 0.0015 μM. • Each compound is tested in triplicate. • Incubate 120 h (5 days) at 37° C., 5% CO2
• Add 30 μl CellTiter-Glo™ Reagent (prepared from CellTiter-Glo™ Buffer and CellTiter-Glo™ Substrate (lyophilized) purchased from Promega) per well, • shake 15 minutes at room temperature • incubate further 45 minutes at room temperature without shaking
• Victor 2 scanning multiwell spectrophotometer (Wallac), Luminescence mode (0.5 sec/read, 477 nm) • Determine IC50 using a non-linear curve fit (XLfit software (ID Business Solution Ltd., Guilford, Surrey, UK))

Aurora A kinase = target: T1, Aurora A kinase (Homo sapiens, UniProt O14965); assay: IC50 determination for inhibitors of Aurora A kinase (ELISA, GST-Histone H3 substrate); type: biochemical; details: mutant Aur A kinase, 30 μM ATP, 40 minutes; read-out: IC50 Aurora A kinase inhibition
T1 sequence (O14965 1-403): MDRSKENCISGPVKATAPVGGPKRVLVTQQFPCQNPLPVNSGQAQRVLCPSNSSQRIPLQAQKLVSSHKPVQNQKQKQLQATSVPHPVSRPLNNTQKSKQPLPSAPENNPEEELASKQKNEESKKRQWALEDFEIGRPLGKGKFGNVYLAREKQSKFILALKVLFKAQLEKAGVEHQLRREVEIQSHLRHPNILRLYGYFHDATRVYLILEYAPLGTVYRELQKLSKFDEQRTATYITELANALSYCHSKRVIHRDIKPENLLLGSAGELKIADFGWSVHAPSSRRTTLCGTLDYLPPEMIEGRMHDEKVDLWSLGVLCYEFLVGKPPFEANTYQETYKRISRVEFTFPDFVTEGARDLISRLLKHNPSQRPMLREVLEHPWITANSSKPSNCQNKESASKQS
Experimental: IC50 Determination for Inhibitors of Aurora A Kinase Assay Principle
Aurora A is a serine threonine kinase involved in spindle assembly and chromosome segregation.
The assay is a typically ELISA-type assay where substrate (GST-Histone H3) is coupled to the assay-plate and is phosphorylated by the kinase. Phosphorylation is detected by a mouse anti-Phosphopeptid mAb and an HRP-labeled anti-mouse pAb. The assay is validated for IC50-determination.
Kinase activities were measured by Enzyme-Linked Immunosorbent Assay (ELISA): Maxisorp 384-well plates (Nunc) were coated with recombinant fusion protein comprising residues 1-15 of HistoneH3 fused to the N-terminus of Glutathione-S-Transferase. Plates were then blocked with a solution of 1 mg/mL I-block (Tropix cat# T2015—highly purified form of casein) in phosphate-buffered saline. […] After washing, substrate phosphorylation was detected by addition of anti-phospho-Histone H3 (Ser 10) 6G3 mAb (Cell Signaling cat #9706) and sheep anti-mouse pAb-HRP (Amersham cat# NA931V), followed by colorimetric development with TMB (3,3′,5,5′-tetramethylbenzidine from Kirkegaard & Perry Laboratories). After readout of the absorbance, IC50 values were calculated using a non-linear curve fit (XLfit software (ID Business Solution Ltd., Guilford, Surrey, UK))

Row | Compound | IC50 (HCT 116 cells) [µM] | IC50 (Aurora A kinase) [nM]
1 | CCCc1cc(-c2nc3cc4c(cc3[nH]2)C(C)(C)C(=O)N4CCCN2CCOCC2)[nH]n1 [Example 6, 7,7-Dimethyl-5-(3-morpholin-4-yl-propyl)-2-(5-propyl-2H-pyrazol-3-yl)-5,7-dihydro-1H-imidazo[4,5-f]indol-6-one] | 1.24 | –
2 | Cc1cc(-c2nc3cc4c(cc3[nH]2)N(CC(=O)Nc2ccc(F)cc2)C(=O)C4(C)C)n[nH]1 [Example 10, 2-[7,7-Dimethyl-2-(5-methyl-1H-pyrazol-3-yl)-6-oxo-6,7-dihydro-3H-imidazo[4,5-f]indol-5-yl]-N-(4-fluoro-phenyl)-acetamide] | 0.1 to 5 | 40
3 | Cc1cc(-c2nc3cc4c(cc3[nH]2)C(C)(C)C(=O)N4CC#N)n[nH]1 [Example 2, [7,7-Dimethyl-2-(5-methyl-1H-pyrazol-3-yl)-6-oxo-6,7-dihydro-1H-imidazo[4,5-f]indol-5-yl]-acetonitrile] | 0.1 to 5 | –
4 | Cc1cc(-c2nc3cc4c(cc3[nH]2)N(CC(=O)N2CCOCC2)C(=O)C4(C)C)n[nH]1 [Example 9, 7,7-Dimethyl-2-(5-methyl-1H-pyrazol-3-yl)-5-(2-morpholin-4-yl-2-oxo-ethyl)-5,7-dihydro-3H-imidazo[4,5-f]indol-6-one] | 5.83 | –
5 | Cc1cc(-c2nc3cc4c(cc3[nH]2)C(C)(C)C(=O)N4CCN)n[nH]1 [Example 14, 5-(2-Amino-ethyl)-7,7-dimethyl-2-(5-methyl-1H-pyrazol-3-yl)-5,7-dihydro-1H-imidazo[4,5-f]indol-6-one] | 5 to 15 | –
6 | COc1cc(CNC(=O)CN2C(=O)C(C)(C)c3cc4nc(-c5cc(C)[nH]n5)[nH]c4cc32)cc(OC)c1 [Example 11, N-(3,5-Dimethoxy-benzyl)-2-[7,7-dimethyl-2-(5-methyl-1H-pyrazol-3-yl)-6-oxo-6,7-dihydro-3H-imidazo[4,5-f]indol-5-yl]-acetamide] | 0.1 to 5 | –
7 | COCCN1C(=O)C(C)(C)c2cc3nc(-c4cc(C)[nH]n4)[nH]c3cc21 [Example 1, 5-(2-Methoxy-ethyl)-7,7-dimethyl-2-(5-methyl-1H-pyrazol-3-yl)-5,7-dihydro-3H-imidazo[4,5-f]indol-6-one] | 0.1 to 5 | 80
8 | CCN(CC)CCN1C(=O)C(C)(C)c2cc3nc(-c4cc(C)[nH]n4)[nH]c3cc21 [Example 13, 5-(2-Diethylamino-ethyl)-7,7-dimethyl-2-(5-methyl-1H-pyrazol-3-yl)-5,7-dihydro-3H-imidazo[4,5-f]indol-6-one] | 0.1 to 5 | –
9 | C=CCN1C(=O)C(C)(C)c2cc3nc(-c4cc(C)[nH]n4)[nH]c3cc21 [Example 3, 5-Allyl-7,7-dimethyl-2-(5-methyl-1H-pyrazol-3-yl)-5,7-dihydro-3H-imidazo[4,5-f]indol-6-one] | 0.1 to 5 | –
10 | Cc1cc(-c2nc3cc4c(cc3[nH]2)C(C)(C)C(=O)N4CCCN2CCOCC2)[nH]n1 [Example 5, 7,7-Dimethyl-2-(5-methyl-2H-pyrazol-3-yl)-5-(3-morpholin-4-yl-propyl)-5,7-dihydro-1H-imidazo[4,5-f]indol-6-one] | 0.1 to 5 | –
11 | Cc1cc(-c2nc3cc4c(cc3[nH]2)N(CC(=O)NCc2ccc(F)cc2)C(=O)C4(C)C)n[nH]1 [Example 12, 2-[7,7-Dimethyl-2-(5-methyl-1H-pyrazol-3-yl)-6-oxo-6,7-dihydro-3H-imidazo[4,5-f]indol-5-yl]-N-(4-fluoro-benzyl)-acetamide] | 0.1 to 5 | –
12 | CC1(C)C(=O)N(CCCN2CCOCC2)c2cc3nc(-c4cc(C(F)(F)F)n[nH]4)[nH]c3cc21 [Example 4, 7,7-Dimethyl-5-(3-morpholin-4-yl-propyl)-2-(5-trifluoromethyl-2H-pyrazol-3-yl)-5,7-dihydro-1H-imidazo[4,5-f]indol-6-one] | 0.1 to 5 | –
